Patent publication US20060014231A1, “Methods and compositions to promote bone homeostasis” (priority 2004, published 2006)

Test system: RUNX2
Assay: DN-RUNX2 assay: interference with up-regulation of AP activity in MPCs
Assay type: cell-based, human
Conditions: Ad-NR1H3 + T0901317 plus Ad-DN-RUNX2 versus Ad-luciferase, 6 days post infection
Text: Since the osteogenic activity of BMP2 is known to work through RUNX2, Ad-BMP2 and Ad-DN-RUNX2 viruses are used to develop the DN-RUNX2 assay. The human full-length RUNX2 cDNA is obtained by RT-PCR from total RNA extracted from MPCs. The 5′ part of the cDNA encoding amino acids 1-214 is obtained by PCR from the cloned RUNX2 cDNA and subcloned in an adenoviral adapter plasmid. The identity of the cloned fragment is verified by sequencing. This plasmid is used to generate an adenoviral stock, as described in WO 9964582.
MPCs are seeded at 1000 cells/well in a 384 well plate and infected the next day with adenoviruses encoding hCAR (MOI 250), Ad-BMP2 (MOIs 6000, 2000, 666) and one of Ad-DN-RUNX2 or Ad-luciferase (MOIs 2000 or 666). Alkaline phosphatase activity is read 6 days post infection.
The DN-RUNX2 assay is used to test the involvement of RUNX2 in the up-regulation of AP activity by NR5A2, NR1H3, and ESRRG. MPCs are seeded at 1000 cells/well in a 384 well plate and are infected the next day with adenoviruses encoding hCAR (MOI 250), Ad-BMP2, Ad-ESRRG, Ad-NR5A2, Ad-NR1H3 (MOIs 6000, 2000, 666) and one of Ad-DN-RUNX2 or Ad-luciferase (MOI 1000 or MOIs 2000 and 666) (see FIG. 19(C)). Alkaline phosphatase activity is read 6 days post infection and raw data are analysed.

O=S(=O)(c1ccccc1)N(CC(F)(F)F)c1ccc(C(O)(C(F)(F)F)C(F)(F)F)cc1 [T0901317]
up-regulation of AP activity induced by NR1H3 in the presence of T0901317, under overexpression of DN-RUNX2: significantly reduces
